Measurements as given in patent publication US9387219B2, “Edible composition” (Conopco, Inc., priority 2011, dated 2016).

Columns and labels:
[1] = molecular target: T1, GLUT2 (Homo sapiens, UniProt P11168); test: Glucose transport inhibitor cell screening assay, 25 mM D-glucose for 30 minutes (GLUT2 inhibition); format: cell-based; settings: differentiated Caco-2 monolayer, 30 minutes, active at 150 uM
T1 construct: endogenous in cells; host or cells: differentiated Caco-2 cell monolayers (ATCC)
T1 sequence (P11168 1-524): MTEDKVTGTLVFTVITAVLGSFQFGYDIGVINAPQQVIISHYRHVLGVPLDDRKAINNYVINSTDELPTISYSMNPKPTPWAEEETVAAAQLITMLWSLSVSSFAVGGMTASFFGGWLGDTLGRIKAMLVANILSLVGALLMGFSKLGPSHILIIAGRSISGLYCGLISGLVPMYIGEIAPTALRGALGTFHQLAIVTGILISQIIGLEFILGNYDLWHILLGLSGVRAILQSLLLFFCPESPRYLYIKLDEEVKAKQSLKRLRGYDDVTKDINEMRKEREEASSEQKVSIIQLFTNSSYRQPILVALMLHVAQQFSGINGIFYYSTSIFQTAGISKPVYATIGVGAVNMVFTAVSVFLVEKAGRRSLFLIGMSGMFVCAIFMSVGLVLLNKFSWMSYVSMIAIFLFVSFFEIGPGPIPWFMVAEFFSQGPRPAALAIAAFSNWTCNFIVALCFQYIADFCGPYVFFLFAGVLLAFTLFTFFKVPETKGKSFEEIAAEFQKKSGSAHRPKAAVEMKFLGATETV
Procedure: (§1) Human epithelial colorectal adenocarcinoma (Caco-2) cells were obtained from the American Type Culture Collection (ATCC) and cultured in Growth Medium consisting of Dulbecco's modified Eagle's medium (containing Glutamax-1, 4.5 g/L D-glucose and 25 mM 4-(2-hydroxyethyl)-1-piperazine ethanesulphonic acid (Hepes) (Invitrogen)), 10% foetal bovine serum (Sigma), 1% non-essential amino acids (Invitrogen) and 1 mM sodium pyruvate (Sigma)). The cells were routinely passaged at approximately 80% confluence using TrypLE™ Express Stable Trypsin-Like Enzyme (Invitrogen) to detach the cells, and seeded at approximately 114 cells per mm^2 in fresh tissue culture flasks. Only cells between the passage numbers 45 and 49 were used for experiments.
(§2) Corning® HTS Transwell® 96 well permeable insert supports (Sigma) were collagen coated with 40 μl of 50 μg/ml rat tail collagen type I (BD Biosciences) in 0.02 M acetic acid for one hour at room temperature under sterile conditions. The inserts were washed twice in phosphate buffered saline (PBS (Invitrogen)) and the Caco-2 cells seeded into the inserts at 9.6×10^5 cell/ml (75 μl per insert) in Growth Medium and 30 ml of Growth Medium added to the feeder plate below. The cells were left to attach to the collagen matrix and form monolayers over 48 hours at 37° C., 5% CO2. Both inserts and feeder plate were washed in PBS and the cells incubated with BD Entero-STIM™ Enterocyte Differentiation Medium containing MITO+™ Serum Extender solution (both BD Biosciences), 75 μl per insert and 30 ml in the feeder plate, for a further 48 hours at 37° C., 5% CO2.
(§3) Differentiated cell monolayers were washed gently in Dulbecco's Phosphate Buffered Saline containing CaCl2 and MgCl2 (PBS(+) (Invitrogen)) and the inserts transferred to a new Corning® HTS Transwell®-96 well receiver plate (Sigma). The cells were incubated with fresh PBS(+) (75 μl per insert and 225 μl per well) for 60 minutes at 37° C., 5% CO2. The PBS(+) was gently aspirated and replaced with 75 μl per insert of either 5 mM D-glucose (Sigma)±test active or 25 mM D-glucose±test active in triplicate and 225 μl per well of PBS(+) quickly added to each well. The 5 mM glucose wells and the 25 mM glucose wells were incubated at 37° C., 5% CO2 for 15 minutes and 30 minutes, respectively. Details of all the actives tested are found in table 1. The cell inserts were transferred to a new receiver plate, the supernatant gently aspirated from the cells and replaced with 100 μl of 100 μM of Lucifer Yellow (Sigma) solution to confirm the integrity of the monolayers. 225 μl of PBS(+) was added to each well and incubated at 37° C., 5% CO2 for 1 hour. The cell inserts were then discarded and the permeability of the membranes to Lucifer Yellow checked by measuring the fluorescence of the samples at 485 nm (excitation) and 530 nm (emission) on a Spectramax Gemini EM fluorescence microplate reader.
(§4) The amount of glucose transported across the cell monolayers was measured using a glucose assay based on Invitrogen's Amplex Red Glucose/Glucose oxidase Assay Kit. Briefly, 50 μl of each test sample was transferred to a black sided/clear bottom 96-well plate (Greiner Bio-One) to which 100 μl of reaction buffer (0.5 μl 10 mM Ampliflu Red, 1 μl 10 U/ml Horse Radish peroxidase, 1 μl 100 U/ml glucose oxidase and 97.5 μl PBS (all Sigma)) was added. After 10 minutes incubation at room temperature, the fluorescence of the samples were measured at 530 nm (excitation) and 590 nm (emission) on a Spectramax Gemini EM fluorescence microplate reader and the glucose concentration extrapolated from a standard curve.
(§5) At higher D-glucose concentrations, the SGLT1 transporter becomes saturated and consequently the majority of glucose transport across the monolayer is driven by the low affinity, high capacity GLUT2 transporter that is targeted to the apical membrane only following an initial SGLT1-dependent transport of glucose.

[2] = molecular target: T2, SGLT1 (Homo sapiens, UniProt P13866); test: Glucose transport inhibitor cell screening assay, 5 mM D-glucose for 15 minutes (SGLT1 inhibition); format: cell-based; settings: for Class (assigned class of transporter inhibited): assigned from % inhibition at 5 mM and 25 mM D-glucose in Caco-2 cells; for SGLT1 inhibitory activity (in words): Caco-2 cell model
T2 construct: endogenous in cells; host or cells: differentiated Caco-2 cell monolayers (ATCC)
T2 sequence (P13866 1-664): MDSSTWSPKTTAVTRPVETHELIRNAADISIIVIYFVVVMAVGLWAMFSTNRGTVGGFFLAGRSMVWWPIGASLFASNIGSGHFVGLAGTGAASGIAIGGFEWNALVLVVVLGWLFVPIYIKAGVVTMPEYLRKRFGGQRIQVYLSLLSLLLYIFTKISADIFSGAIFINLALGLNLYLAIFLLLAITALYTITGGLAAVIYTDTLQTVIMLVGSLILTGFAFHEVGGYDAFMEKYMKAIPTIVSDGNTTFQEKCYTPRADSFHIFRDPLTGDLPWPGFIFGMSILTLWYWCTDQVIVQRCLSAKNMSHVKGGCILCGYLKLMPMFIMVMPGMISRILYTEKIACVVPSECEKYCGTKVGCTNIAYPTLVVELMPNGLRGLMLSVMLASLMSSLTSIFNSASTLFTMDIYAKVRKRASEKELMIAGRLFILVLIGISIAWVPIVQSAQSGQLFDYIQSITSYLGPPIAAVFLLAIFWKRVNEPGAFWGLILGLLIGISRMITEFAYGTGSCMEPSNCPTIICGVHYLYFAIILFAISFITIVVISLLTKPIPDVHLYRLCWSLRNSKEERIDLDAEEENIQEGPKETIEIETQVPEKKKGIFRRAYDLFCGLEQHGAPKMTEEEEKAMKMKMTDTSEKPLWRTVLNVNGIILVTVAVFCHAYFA
Procedure: as §1, §2, §3, §4, §5

[3] = differentiated Caco-2 monolayer, 5 mM D-glucose, 15 minutes, active at 300 uM

| SMILES | % Glucose Transport inhibition 25 mM [1] | inhibition at 150 µM [1] | Class (assigned class of transporter inhibited) [2] | inhibition at 300 µM [2, 3] | SGLT1 inhibitory activity (in words) ([2]; 5 mM D-glucose) | % Glucose Transport inhibition 5 mM [2, 3] |
| --- | --- | --- | --- | --- | --- | --- |
| O=c1cc(-c2ccc(O)cc2)oc2cc(OC3O[C@H](CO)[C@@H](O)[C@H](O)[C@H]3O)cc(O)c12 (stereo partly drawn) [Apigenin-7-glucoside] | 12.81% |  |  |  |  |  |
| O=c1cc(-c2ccc(O)cc2)oc2cc(O)cc(O)c12 [Apigenin] |  | 49.3% | GLUT2 (GLUT2 inhibitors having ≧20% inhibition at both 5 mM and 25 mM D-glucose levels) | 56.8% |  |  |
| OC[C@H]1O[C@@H](Oc2cc3c(O)cc(O)cc3[o+]c2-c2ccc(O)c(O)c2)[C@H](O)[C@@H](O)[C@@H]1O [Cyanidin-3-glucoside] |  |  | SGLT1 |  | inhibition of SGLT1 |  |
| C[C@@H]1O[C@@H](OC[C@H]2O[C@@H](Oc3cc4c(O)cc(O)cc4[o+]c3-c3ccc(O)c(O)c3)[C@H](O)[C@@H](O)[C@@H]2O)[C@H](O)[C@H](O)[C@H]1O [Cyanidin-3-rutinoside] |  |  | None |  | absence of SGLT1 inhibitory activity |  |
| Oc1cc(O)c2cc(O)c(-c3ccc(O)c(O)c3)[o+]c2c1 [Cyanidin] |  | 3.21% |  | 7.93% |  |  |
| O=c1c(-c2ccc(O)cc2)coc2c([C@@H]3O[C@H](CO)[C@@H](O)[C@H](O)[C@H]3O)c(O)ccc12 [Daidze in-8-C-glucoside] |  |  | SGLT1 |  | inhibition of SGLT1 |  |
| O=c1c(-c2ccc(O)cc2)coc2cc(O[C@@H]3O[C@H](CO)[C@@H](O)[C@H](O)[C@H]3O)ccc12 [Daidzein-7-glucoside] | 7.23% |  | SGLT1 |  | inhibition of SGLT1 | 35.03% |
| OC[C@H]1O[C@@H](Oc2cc3c(O)cc(O)cc3[o+]c2-c2cc(O)c(O)c(O)c2)[C@H](O)[C@@H](O)[C@@H]1O [Delphinidin-3-glucoside] |  |  | SGLT1 |  | inhibition of SGLT1 |  |
| Oc1cc(O)c2cc(O)c(-c3cc(O)c(O)c(O)c3)[o+]c2c1 [Delphinindin] | 15.86% |  |  |  |  |  |
| O=C1C[C@@H](c2ccc(O)c(O)c2)Oc2cc(O[C@@H]3O[C@H](CO)[C@@H](O)[C@H](O)[C@H]3O)cc(O)c21 [Eriodictiol-7-O-glucoside] | 4.98% |  | SGLT1 |  | inhibition of SGLT1 |  |
| O=c1c(-c2ccc(O)cc2)coc2cc(O)cc(O)c12 [Genistein] |  | 57.7% | GLUT2 (GLUT2 inhibitors having ≧20% inhibition at both 5 mM and 25 mM D-glucose levels) | 56.5% |  |  |
| COc1ccc([C@@H]2CC(=O)c3c(O)cc(O)cc3O2)cc1O [Hesperetin] |  | 74.4% | GLUT2 (GLUT2 inhibitors having ≧20% inhibition at both 5 mM and 25 mM D-glucose levels) | 72.3% |  |  |
| O=c1c(O)c(-c2ccc(O)cc2)oc2cc(O)cc(O)c12 [Kaempferol] |  | 32.4% | GLUT2 (GLUT2 inhibitors having ≧20% inhibition at both 5 mM and 25 mM D-glucose levels) | 26% |  |  |
| O=c1cc(-c2ccc(O)c(O)c2)oc2cc(O)cc(O)c12 [Luteolin] |  | 63.2% | GLUT2 (GLUT2 inhibitors having ≧20% inhibition at both 5 mM and 25 mM D-glucose levels) | 77.4% |  |  |
| COc1cc(-c2[o+]c3cc(O)cc(O)c3cc2O[C@@H]2O[C@H](CO)[C@H](O)[C@H](O)[C@H]2O)cc(OC)c1O [Malvidin 3-O-Galactoside] | 10.41% |  | None |  | absence of SGLT1 inhibitory activity |  |
| COc1cc(-c2[o+]c3cc(O)cc(O)c3cc2O[C@@H]2O[C@H](CO)[C@@H](O)[C@H](O)[C@H]2O)cc(OC)c1O [Malvidin-3-O-glucoside] | 10.91% |  | SGLT1 |  | inhibition of SGLT1 |  |
| Oc1ccc(-c2[o+]c3cc(O)cc(O)c3cc2O)cc1 [Pelargonidin] |  |  |  | 4.07% |  |  |
| O=C(CCc1ccc(O)cc1)c1c(O)cc(O)cc1O [Phloretin, reference compound] |  | 76.1% |  |  |  |  |
| O=c1c(O[C@@H]2O[C@H](CO)[C@@H](O)[C@H](O)[C@H]2O)c(-c2ccc(O[C@@H]3O[C@H](CO)[C@@H](O)[C@H](O)[C@H]3O)c(O)c2)oc2cc(O)cc(O)c12 [Quercetin-3,4′-diglucoside] |  |  | None |  | destroys this inhibitory action |  |
| OC[C@H]1O[C@@H](Oc2ccc(O)cc2)[C@H](O)[C@@H](O)[C@@H]1O [arbutin] |  |  |  |  | lack of SGLT1 inhibitory activity |  |
